How the values were obtained:
[1] = test system: ETBR total protein; experiment: ETBR total protein in melanoma cell lines, Western blot; assay type: cell-based, human; details: 24 h
Protocol: (§1) Melanoma cell lines UACC-257X2.2, A2058, COLO 829, IPC-298 (ATCC) were treated with a BRAF inhibitor drug (“BRAFi”), specifically RG7204 at varying concentrations by adding the appropriate drug volume to cells in culture for 24 h on four-well dishes.
(§2) To test whether the increase in ETBR transcripts due to BRAFi treatment also results in any changes in ETBR total protein levels, Western blot experiments were performed on the same cell lines treated with BRAFi RG7204 as described above. For Western blotting, the following reagents were used: for detection of proteins: an anti-ETBR in-house generated monoclonal antibody 1H1.8.5, anti-Phospho-p44/42 MAPK (Erk1/2) (Thr202/Tyr204) antibody (9101, Cell Signaling Technology), anti-p44/42 MAPK (Erk1/2) antibody (9102, Cell Signaling Technology) and as controls, a rabbit polyclonal anti-GAPDH (glyceraldehyde-3-phosphate dehydrogenase) antibody (PA1-987; Affinity Bioreagents) and mouse monoclonal anti-β-Tubulin antibody (556321, BD Pharmingen). The results for UACC-257X2.2 are shown in FIG. 4B, the results for A2058 are shown in FIG. 8B, the results for COLO 829 are shown in FIG. 6B and the results for IPC-298 are shown in FIG. 10.
Melanoma cell lines A2058, COLO 829, SK23-MEL and IPC-298 (ATCC) were treated with a MEK inhibitor drug (“MEKi-973” or “MEKi-623”), at varying concentrations (0 μM, 0.01 μM, 0.1 μM or 1 μM) by adding the appropriate drug volume to cells in culture for 24 h on four-well dishes.
To test whether the increase in ETBR transcripts due to MEKi treatment also results in any changes in ETBR total protein levels, Western blot experiments were performed on cell lines COLO829 (BRAF^V600E), A2058 (BRAF^V600E), SK23-MEL (BRAF^WT/RAS^WT), or IPC-298 (BRAF^WT/RAS^[…]) which were treated with MEKi-973 as described above. For Western blotting, the following reagents were used: for detection of proteins: an anti-ETBR in-house generated monoclonal antibody 1H1.8.5, anti-Phospho-p44/42 MAPK (Erk1/2) (Thr202/Tyr204) antibody (9101, Cell Signaling Technology), anti-p44/42 MAPK (Erk1/2) antibody (9102, Cell Signaling Technology) and as controls, a rabbit polyclonal anti-GAPDH (glyceraldehyde-3-phosphate dehydrogenase) antibody (PA1-987; Affinity Bioreagents) and mouse monoclonal anti-β-Tubulin antibody (556321, BD Pharmingen). The results for A2058 are shown in FIG. 15A treated with MEKi-623 and 15B treated with MEKi-973, the results for COLO 829 are shown in FIG. 12A treated with MEKi-623 and 12B treated with MEKi-973, the results for SK23-MEL are shown in FIG. 19A treated with MEKi-623 and 19B treated with MEKi-973, and the results for IPC-298 are shown in FIG. 22A treated with MEKi-623 and 22B treated with MEKi-973.

[2] = test system: A2058; experiment: In vitro killing of A2058 by RG7204 (data not shown); assay type: cell-based, human
[3] = test system: COLO 829 melanoma xenograft; experiment: In vivo efficacy, subcutaneous melanoma xenograft, tumor volume / % TGI; parameters: species or system mice
Protocol: The average tumor volumes were determined from 10 animals per group. Tumor volumes were measured twice per week until study end. Tumor volumes were measured in two dimensions (length and width) using UltraCal IV calipers (Model 54 10 111, Fred V. Fowler Company; Newton, Mass.). The following formula was used with Excel, version 12.2.8 (Microsoft; Redmond, Wash.) to calculate tumor volume: Tumor Volume (mm3)=(length×width)×0.5
To analyze the repeated measurement of tumor volumes from the same animals over time, a mixed-modeling Linear Mixed Effects (LME) approach was used (Pinheiro et al. 2009). This approach can address both repeated measurements and a modest drop-out rate due to non-treatment-related termination of animals prior to study end. Cubic regression splines were used to fit a non-linear profile to the time courses of log 2 tumor volume at each dose level. These non-linear profiles were then related to dose within the mixed model. Tumor growth inhibition (TGI) as a percentage of vehicle was calculated as percent area under the fitted curve (AUC) per day in relation to the vehicle, using the following formula:
To get uncertainty intervals (UIs) for % TGI, the fitted curve and the fitted covariance matrix were used to generate a random sample as an approximation to the distribution of % TGI. The random sample is composed of 1000 simulated realizations of the fitted-mixed model, where the % TGI has been recalculated for each realization. Here, in the reported UI is the value for which 95% of the time, the recalculated values of % TGI will fall in this region given the fitted model. The 2.5 and 97.5 percentiles of the simulated distribution were used as the upper and lower UIs.
The COLO 829 xenograft model was chosen as representative of medium levels of ETBR expression, further increasing the stringency of the combination studies. Tumors were grown to an average size of approximately 200 mm^3, whereupon animals were randomized into groups of 9 each. An appropriate vehicle control (Klucel LF) or G00044364.1-12 (RG7204) at doses of 10 mpk or 30 mpk were administered orally twice a day for 21 days starting on day 0.

[4] = test system: ETBR transcript; experiment: PD study, ETBR transcript in COLO 829 tumors, Taqman, normalized to GAPDH; assay type: in vivo, mice; details: RG7204 10 mpk or 30 mpk twice a day for 3 days
Protocol: (§3) A2058 or COLO 829 tumors were grown to an average size of approximately 200 mm^3, whereupon animals were randomized into groups of 5-6 each. For the BRAFi PD study, an appropriate vehicle control (Klucel LF) or RG7204 at doses of 10 mpk or 30 mpk were administered twice a day for 3 days (FIG. 27A). For the MEKi PD study, an appropriate vehicle control or MEKi-973 at doses of 5 mpk and 10 mpk were administered orally once a day for 3 days (FIG. 27B). Flash frozen tumors harvested at end of study were homogenized and processed for RNA and/or protein. Taqman assays were set up using reagents from Applied Biosystems (ABI, Foster City, Calif.) and assayed using 7500 Real Time PCR machine and software from ABI. Primer-probe sets were designed with primers flanking a fluorogenic probe dual labeled with Reporter dye FAM and quencher dye TAMRA. ETBR transcript levels in the tumors were normalized against transcript levels of reference genes such as Hprt1 (hypoxanthine phosphoribosyltransferase 1) or GAPDH (glyceraldehyde 3 phosphate dehydrogenase) using primer and probe sets that were specific to the human homologs of these genes.

[5] = test system: Phosphorylated erk; experiment: PD study, phosphorylated erk in COLO 829 tumors, Western blot; assay type: in vivo, mice; details: 30 mpk BRAFi RG7204
Protocol: as §3, with “ETBR transcript levels in the tumors were normalized against transcript levels of reference genes such as Hprt1 (hypoxanthine phosphoribosyltransferase 1) or GAPDH (glyceraldehyde 3 phosphate dehydrogenase) using primer and probe sets that were specific to the human homologs of these genes.” left out
Phosphorylated erk and total erk protein levels were evaluated in the tumors by western blotting using the following reagents: for detection of proteins: anti-Phospho-p44/42 MAPK (Erk1/2) (Thr202/Tyr204) antibody (9101, Cell Signaling Technology), anti-p44/42 MAPK (Erk1/2) antibody (9102, Cell Signaling Technology) and mouse monoclonal anti-β-Tubulin antibody (556321, BD Pharmingen) as control (FIG. 26).

[6] = test system: phosphor-ERK; experiment: Phospho-ERK in melanoma cells, Western blot; assay type: cell-based, human; details: IPC-298 cells (BRAF wild-type, RAS Q61L), 24 h
Protocol: as §1, §2

Q: Which “ETBR total protein level vs untreated control cells” value ([1]; A2058 cells (BRAF V600E)) does the source give for `CCCS(=O)(=O)Nc1ccc(F)c(C(=O)c2c[nH]c3ncc(-c4ccc(Cl)cc4)cc23)c1F` [RG7204, propane-1-sulfonic acid {3-[5-(4-chlorophenyl)-1H-pyrrolo[2,3-b]pyridine-3-carbonyl]-2,4-difluoro-phenyl}-amide] here?
A: appears to increase the ETBR total protein levels

Q: And the “ETBR total protein level vs untreated control cells” value ([1]; COLO 829 cells (BRAF V600E))?
A: appears to increase the ETBR total protein levels

Q: What about the “ETBR total protein level vs untreated control cells” value ([1]; IPC-298 cells (BRAF wild-type, RAS mutant)) of the same compound?
A: does not appear to increase ETBR levels

Q: What about the “ETBR total protein level vs untreated control cells” value ([1]; UACC-257X2.2 cells) of the same compound?
A: appears to increase the ETBR total protein levels

Q: What about the “in vitro killing efficacy” value [2] of the same compound?
A: > 20 µM

Q: What about the “% TGI Single Agent BRAFi vs. control” value ([3]; BRAFi Qdx21 10 mg/kg) of the same compound?
A: 27%

Q: What about the “% TGI Single Agent BRAFi vs. control” value ([3]; BRAFi Qdx21 30 mg/kg) of the same compound?
A: 83%

Q: What about the “ETBR mRNA in tumors vs control vehicle” value [4] of the same compound?
A: induces ETBR mRNA in vivo

Q: What about the “Perk in tumors vs control” value [5] of the same compound?
A: appears to inhibit Perk in vivo

Q: What about the phosphor-ERK level [6] of the same compound?
A: appears to activate the levels of phosphor-ERK

From patent US20140341916A1, “THERAPEUTIC COMBINATIONS AND METHODS OF TREATING MELANOMA” (Genentech, Inc., priority 2011, published 2014)
